Experimental data: patent US20200253211A1, “PHOTODYNAMIC INHIBITION OF MICROBIAL PATHOGENS IN PLANTS” (SUNCOR ENERGY INC, priority 2017, published 2020)
Where two headings read alike, the source gives them in different places.

Tests used:
Format in all cases: cell-based
[1] = tested on: Botrytis cinerea mycelia; assay: Photodynamic inhibition of Botrytis cinerea mycelia, percentage of dead samples after 7 days on agar; conditions: Table 4; EDTA-Ca 5 mM alone; with light
Procedure: (§1) In the experiments, Botrytis cinerea mycelia were grown in liquid medium for 48 hours. Small spheres of the mycelia (average diameter 2 mm) were incubated for 100 minutes with Mg-Chlorophyllin with or without 5 mM Disodium-EDTA. Samples were illuminated with 395 nm (fluence 106.6 J cm^−2) for 120 minutes and the radial growth of mycelial patches after 7 days on agar medium was measured. A sample was considered dead, if there was no growth observable after 7 days on agar plates.
as §1, with “mM EDTA (calcium or disodium).” for “mM Disodium-EDTA.”, “120 min” for “120 minutes”
as §1, with “without Baypure DS100” for “without 5 mM Disodium-EDTA.”, “120 min” for “120 minutes”
The protocol for the PDI of B. cinerea was as follows (for experiments 3 and 4 described above): • Grow B. cinerea on malt-peptone-agar for some days. • Transfer spores of B. cinerea to liquid malt-peptone medium. • Incubate for 2-3 days at 26° C. under constant agitation. • Transfer the grown mycelia (spheres of mycelia, approximately 2 mm diameter) to 24 well plates. • Add 500 μl of the PS to the well. • Incubate under agitation for 100 minutes in the dark. • Illuminate under agitation for 120 minutes. • Transfer the treated mycelia to malt-peptone-agar plates and incubate for one week at room temperature. • Evaluate by counting of dead samples.

[2] = tested on: Sclerotinia homoeocarpa; assay: Radial growth of dollar spot fungus on amended Potato Dextrose Agar, dark vs light; conditions: for inhibition at 500 µM / inhibition at 1000 µM: Clarireedia homoeocarpa, read-out: % Inhibition
[3] = tested on: Alternaria solani mycelia; assay: Photodynamic inhibition of Alternaria solani mycelia, percentage of dead samples after 7 days on agar; conditions: Table 5
Procedure: (§2) In the experiments, Alternaria solani mycelia were grown in liquid medium for 24 hours. Small spheres of the mycelia (average diameter 2 mm) were incubated for 100 minutes with 100 μM of Mg-Chlorophyllin with 0 to 5 mM of Disodium-EDTA. Samples were illuminated with 395 nm (fluence 106.6 J cm^−2) for 120 mins and the radial growth of mycelial patches after 7 days on agar medium was measured. A sample was considered dead, if there was no growth observable after 7 days on agar plates.
as §2, with “Chlorin E6” for “100 μM of Mg-Chlorophyllin”, “or without” for “0 to”, “disodium-EDTA.” for “Disodium-EDTA.”
The protocol for the PDI of A. solani was as follows (for Experiment 2 and 5): • Grow A. solani on tomato-agar for some days. • Transfer parts of the growing mycelium form the edge of the A. solani (no conidia) to liquid tomato medium. • Incubate overnight at 26° C. under constant agitation. • Transfer the grown mycelia (spheres of mycelia, approximately 2 mm in diameter) to 24 well plates. • Add 500 microlitres of the PS to the well (PBS for the Co and light only controls). • Incubate under agitation for 100 minutes. • Illuminate under agitation for 120 minutes. • Transfer the treated mycelia to tomato-agar plates and incubate for one week at room temperature. • Evaluate by counting of dead samples.

[4] = tested on: Sclerotinia homoeocarpa; assay: Radial growth of dollar spot fungus after treatment of plugs in PBS (24 well plates), dark vs light
Procedure: In this example, control of dollar spot fungus (Sclerotinia homoeocarpa) with chlorins combined with a chelating agent was assessed. Treatments were prepared in Phosphate Buffered Saline (PBS) in 24 well plates (in duplicates for light vs. dark incubation) at desired concentrations. Then, a 5 mm diameter plug of a Sclerotinia homoeocarpa isolate (3 isolates total tested) was inoculated into the PBS and incubated at 21° C. in the dark for 2 hours. After 2 hours, one of the 24 well plates (with isolates in triplicate) is left in the dark and one 24 well plate is placed under illumination for 1 hour (all at 21° C.). Following illumination, fungal plugs are removed from PBS, blotted dry on sterile filter paper and transferred to non-amended Potato Dextrose Agar (PDA). Radial growth of the fungus is monitored daily until the growth of S. homoeocarpa reaches the edge of the Petri-dish. Illumination is provided by LED lights emitting about 1000 μmol/m^2/s photosynthetically active radiation (PAR). In this example, control of dollar spot fungus (Sclerotinia homoeocarpa) with Zinc Protoporphyrin IX (Zn-PPIX) combined with EDTA was assessed. Treatments were prepared in Phosphate Buffered Saline (PBS) in 24 well plates (in duplicates for light vs. dark incubation) at desired concentrations. Then, a 5 mm diameter plug of a Sclerotinia homoeocarpa isolate (3 isolates total tested) was inoculated into the PBS and incubated at 21° C. in the dark for 2 hours. After 2 hours, one of the 24 well plates (with isolates in triplicate) is left in the dark and one 24 well plate is placed under illumination for 1 hour (all at 21° C.). Following illumination, fungal plugs are removed from PBS, blotted dry on sterile filter paper and transferred to non-amended Potato Dextrose Agar (PDA). Radial growth of the fungus is monitored daily until the growth of S. homoeocarpa reaches the edge of the Petri-dish. Illumination is provided by LED lights emitting about 1000 μmol/m^2/s photosynthetically active radiation (PAR). In this example, control of dollar spot fungus (Sclerotinia homoeocarpa) with bacteriochlorin combined with EDTA was assessed. Treatments were prepared in Phosphate Buffered Saline (PBS) in 24 well plates (in duplicates for light vs. dark incubation) at desired concentrations. Then, a 5 mm diameter plug of a Sclerotinia homoeocarpa isolate (3 isolates total tested) was inoculated into the PBS and incubated at 21° C. in the dark for 2 hours. After 2 hours, one of the 24 well plates (with isolates in triplicate) is left in the dark and one 24 well plate is placed under illumination for 1 hour (all at 21° C.). Following illumination, fungal plugs are removed from PBS, blotted dry on sterile filter paper and transferred to non-amended Potato Dextrose Agar (PDA). Radial growth of the fungus is monitored daily until the growth of S. homoeocarpa reaches the edge of the Petri-dish. Illumination is provided by LED lights emitting about 1000 μmol/m^2/s photosynthetically active radiation (PAR). In this example, control of dollar spot fungus (Sclerotinia homoeocarpa) with Aluminum chlorin e6 combined with EDTA was assessed. Treatments were prepared in Phosphate Buffered Saline (PBS) in 24 well plates (in duplicates for light vs. dark incubation) at desired concentrations. Then, a 5 mm diameter plug of a Sclerotinia homoeocarpa isolate (3 isolates total tested) was inoculated into the PBS and incubated at 21° C. in the dark for 2 hours. After 2 hours, one of the 24 well plates (with isolates in triplicate) is left in the dark and one 24 well plate is placed under illumination for 1 hour (all at 21° C.). Following illumination, fungal plugs are removed from PBS, blotted dry on sterile filter paper and transferred to non-amended Potato Dextrose Agar (PDA). Radial growth of the fungus is monitored daily until the growth of S. homoeocarpa reaches the edge of the Petri-dish. Illumination is provided by LED lights emitting about 1000 μmol/m^2/s photosynthetically active radiation (PAR). […]

[5] = tested on: E. Coli K-12; assay: E. Coli assay under LED lamps, colony count; conditions: Table 13; light; 1 mM Curcumin in 0.25% Tween 80 solution
Procedure: Regarding the E. Coli assay tests in the above examples, the following procedure was used: • 1. E. Coli K-12 inoculated in 5 mL TSB and placed in a shaking incubator overnight. • 2. Dilute culture in 500 mL PBS (˜10̂8 CFU/mL) and placed in shaking incubator for 30 minutes at […]. • 3.15 mL samples created using 12 mL culture and a mixture of PBS buffer and sample compounds. • 4. Placed under LED lamps for 2 hours (40 W/m^2). • 5. Samples diluted to 10^−4 and culture controls diluted to 10^−5 for plating through series dilutions. • 6. 0.1 mL plated of each sample in triplicates on TSA base (10^−3 and 10^−4 for samples. 10^−4 and 10^−5 for controls). • 7. Incubated overnight at 37° C. • 8. Colonies counted next morning and recorded.

[6] = Table 9A, dark, Ca-EDTA 100 μM, no curcumin
[7] = Table 9B, light, Ca-EDTA 100 μm, no curcumin
[8] = Table 9A, dark, Curcumin 500 μM in 0.25% Tween 80
[9] = Table 9A, dark, Curcumin 1000 μM in 0.25% Tween 80
[10] = Table 9B, light, Curcumin rate 500 μM in 0.25% Tween 80
[11] = Table 9B, light, Curcumin rate 1000 μM in 0.25% Tween 80

## O=C([O-])CN(CCN(CC(=O)[O-])CC(=O)[O-])CC(=O)[O-].[Ca+2].[Na+].[Na+] [EDTA-Ca, calcium disodium EDTA]
[1]
  dead %: 0%
[2]; [6]
  % Inhibition: 80.8%
  Mean Radial Growth: 2.8 mm
[2]; [7]
  % Inhibition: 76.5%
  Mean Radial Growth: 3.2 mm

## C=Cc1c(C)c2cc3nc(c(CC(=O)O)c4[nH]c(cc5nc(cc1[nH]2)C(C)=C5CC)c(C)c4C(=O)O)[C@@H](CCC(=O)O)[C@@H]3C [Chlorin E6]
[3]; light, 1 μM Chlorin E6
  dead %: 0.0%
[3]; light, 10 μM Chlorin E6
  dead %: 8.3%
[3]; light, 100 μM Chlorin E6
  dead %: 0%
[3]; no light, 100 μM Chlorin E6
  dead %: 0.0%
[4]; Table 18A, dark, rate 10 μM
  % Inhibition: −1.49%
  Mean Radial Growth: 11.33 mm
[4]; Table 18A, dark, rate 100 μM
  % Inhibition: 3.48%
  Mean Radial Growth: 10.78 mm
[4]; Table 18B, light, rate 10 μM
  % Inhibition: 24.12%
  Mean Radial Growth: 8.39 mm
[4]; Table 18B, light, rate 100 μM
  % Inhibition: 11.06%
  Mean Radial Growth: 9.83 mm

## COc1cc(/C=C/C(=O)CC(=O)/C=C/c2ccc(O)c(OC)c2)ccc1O [Curcumin]
[2]; [8]
  inhibition at 500 µM: 11.4%
  Mean Radial Growth: 13.1 mm
[2]; [9]
  inhibition at 1000 µM: 33%
  Mean Radial Growth: 9.9 mm
[2]; [10]
  inhibition at 500 µM: 8.1%
  Mean Radial Growth: 12.4 mm
[2]; [11]
  inhibition at 1000 µM: 28.9%
  Mean Radial Growth: 9.6 mm
[5]
  % Inactivation: 86.0%
  CFU/mL: 1.24E+06 CFU/mL
  LogCFU/mL: 6.09 LogCFU/mL
